Laboratory results from PubChem BioAssay (NCI).
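Briefly, cells in 96-well plates were exposed to five compound concentrations for 48 h, and endpoints were estimated by linear interpolation. GI50: concentration for 50% inhibition of growth. TGI is the concentration that stops growth completely.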

How the values were obtained:
Assay in all cases: NCI-60 cell line screen, 48 h
OVCAR-5 ovarian = system: OVCAR-5 ovarian
CAKI-1 renal = system: CAKI-1 renal
SF-539 CNS = system: SF-539 CNS
M14 melanoma = system: M14 melanoma
MCF7 breast = system: MCF7 breast
HOP-92 NSCLC = system: HOP-92 NSCLC
MOLT-4 leukemia = system: MOLT-4 leukemia
OVCAR-3 ovarian = system: OVCAR-3 ovarian
SK-MEL-28 melanoma = system: SK-MEL-28 melanoma
NCI/ADR-RES ovarian = system: NCI/ADR-RES ovarian
HS 578T breast = system: HS 578T breast
RPMI-8226 leukemia = system: RPMI-8226 leukemia
COLO 205 colon = system: COLO 205 colon
RXF 393 renal = system: RXF 393 renal
MDA-MB-435 = system: MDA-MB-435
SN12C renal = system: SN12C renal
HT29 colon = system: HT29 colon
SNB-75 CNS = system: SNB-75 CNS
SW-620 colon = system: SW-620 colon
IGROV1 ovarian = system: IGROV1 ovarian
PC-3 prostate = system: PC-3 prostate
SK-OV-3 ovarian = system: SK-OV-3 ovarian
MALME-3M melanoma = system: MALME-3M melanoma
NCI-H522 lung = system: NCI-H522 lung
TK-10 renal = system: TK-10 renal

COc1cc(/C=N/Nc2ccnc3cc(Cl)ccc23)cc(OC)c1O
GI50 (OVCAR-5 ovarian): 1.67 µM | TGI (OVCAR-5 ovarian): 3.08 µM | GI50 (CAKI-1 renal): 1.66 µM | TGI (CAKI-1 renal): 3.02 µM | GI50 (SF-539 CNS): 1.75 µM | TGI (SF-539 CNS): 3.16 µM | GI50 (M14 melanoma): 1.76 µM | TGI (M14 melanoma): 3.22 µM | GI50 (MCF7 breast): 1.58 µM | TGI (MCF7 breast): 3.37 µM | GI50 (HOP-92 NSCLC): 1.44 µM | TGI (HOP-92 NSCLC): 2.89 µM | GI50 (MOLT-4 leukemia): 2.36 µM | TGI (MOLT-4 leukemia): 5.71 µM | GI50 (OVCAR-3 ovarian): 2.41 µM | TGI (OVCAR-3 ovarian): 5.47 µM | GI50 (SK-MEL-28 melanoma): 1.79 µM | TGI (SK-MEL-28 melanoma): 3.21 µM | GI50 (NCI/ADR-RES ovarian): 2.13 µM | TGI (NCI/ADR-RES ovarian): 4.51 µM | GI50 (HS 578T breast): 2.03 µM | TGI (HS 578T breast): 4.44 µM | GI50 (RPMI-8226 leukemia): 2.18 µM | TGI (RPMI-8226 leukemia): 4.78 µM | GI50 (COLO 205 colon): 1.86 µM | TGI (COLO 205 colon): 3.42 µM | GI50 (RXF 393 renal): 1.75 µM | TGI (RXF 393 renal): 3.31 µM | GI50 (MDA-MB-435): 1.69 µM | TGI (MDA-MB-435): 3.07 µM | GI50 (SN12C renal): 1.8 µM | TGI (SN12C renal): 3.56 µM | GI50 (HT29 colon): 1.81 µM | TGI (HT29 colon): 3.34 µM | GI50 (SNB-75 CNS): 1.67 µM | TGI (SNB-75 CNS): 3.08 µM | GI50 (SW-620 colon): 1.69 µM | TGI (SW-620 colon): 3.66 µM | GI50 (IGROV1 ovarian): 1.85 µM | TGI (IGROV1 ovarian): 3.63 µM | GI50 (PC-3 prostate): 1.66 µM | TGI (PC-3 prostate): 3.18 µM | GI50 (SK-OV-3 ovarian): 1.72 µM | TGI (SK-OV-3 ovarian): 3.14 µM | GI50 (MALME-3M melanoma): 1.87 µM | TGI (MALME-3M melanoma): 3.44 µM | GI50 (NCI-H522 lung): 1.66 µM | TGI (NCI-H522 lung): 3.2 µM | GI50 (TK-10 renal): 1.81 µM | TGI (TK-10 renal): 3.25 µM
